In PMC2150373, “Phase I study of the mitomycin C analogue BMS-181174” (British Journal of Cancer, 1998):
Read-outs that look alike come from different tables or passages of the source.

How the values were obtained:
[1] = tested on: histologically proven advanced cancer
Description: (§1) In a phase I study of 82 patients with confirmed malignancy, we administered BMS-181174 at doses of 0.8-75 mg m-2 by intravenous injection every 28 days. At least three patients were evaluated at each dose level, and 174 courses were administered. […] BMS- 181174, also known as BMY-25067, is a semi-synthetic analogue of MMC created by substitution of the […] amino group by a nitrophenyl disulphide moiety (Figure 1). […] It is not known what form of BMS-181174 enters cells. However, it is possible that, after systemic administration, several forms of the drug in addition to the parent compound may be present, including mixed disulphides with endogenous thiols (such as cysteine, glutathione and methionine), methylated TEMMC and TEMMC disulphide. […] The anti-tumour effects of BMS-1 81174 have been evaluated in vivo (Bradner et al, 1990). […] The selection of the starting dose for the clinical study was based on the toxic low dose (TLD) in the dog.

[2] = tested on: patients with histologically proven advanced cancer
Description: as §1

[3] = Pharmacokinetics of total TEMMC in plasma (HPLC, non-compartmental)
Description: as §1

[4] = tested on: mice; details: single intravenous dose, ref Nicaise and Usakewicz, 1989; cited from earlier work
[5] = tested on: dog; details: ref Nicaise and Usakewicz, 1989; cited from earlier work
[6] = tested on: rats; details: of three species tested (mice, rats and dogs) in rats only; ref Bregman et al, 1989; cited from earlier work
[7] = tested on: B 16 melanoma; details: drug and tumour both intraperitoneal, or i.v. against subcutaneous tumour; ref Bradner et al, 1990; cited from earlier work
[8] = tested on: subline of L1210 partly resistant to MMC; details: ref Bradner et al, 1990; cited from earlier work
[9] = tested on: highly MMC-resistant P388; details: ref Bradner et al, 1990; cited from earlier work
[10] = tested on: mice; details: respective maximum non-lethal doses in mice; ref Bradner et al, 1990; cited from earlier work
[11] = tested on: ferrets; details: ref Bradner et al, 1990; cited from earlier work
[12] = tested on: MMC-resistant tumour cell lines; details: in vitro, ref Rockwell et al, 1995, cited from earlier work
[13] = preliminary in vitro studies; presumably disulphide exchange with thiols; cited from earlier work
[14] = tested on: patients with solid tumors; details: similar doses given by 6-h infusion; ref Planting et al, 1994; cited from earlier work
[15] = tested on: mice, rats and dogs; details: cited from earlier work
[16] = 65 mg m-2, 12 patients all pretreated with chemotherapy
[17] = 75 mg m-2, 14 patients with no prior chemotherapy
[18] = 75 mg m-2, six previously treated patients

## CO[C@@]12[C@H](COC(N)=O)C3=C(C(=O)C(C)=C(NCCSSc4ccc([N+](=O)[O-])cc4)C3=O)N1C[C@@H]1N[C@@H]12 [BMS-181174, N-7[2-(4-nitrophenyldithio)ethyl] mitomycin C]
[1]; 3 out of 32 patients treated at 65-75 mg m-2
  partial response rate: 9%
[1]; 22 out of 32 patients at 65-75 mg m-2
  treatment discontinued for progressive disease: 69%
[1]; 44 of 50 patients treated at 0.8-50 mg m-2
  treatment discontinued because of progressive disease: 88%
[1]; 50 patients treated at 0.8-50 mg m-2
  partial response rate: 2%
[1]; Total, 82 patients
  minor response (MR), no. of patients: 1
  partial response (PR), no. of patients: 4
  stable disease (SD), no. of patients: 8
[1]; Total, 82 patients (10 not evaluable)
  progressive disease (PD), no. of patients: 59
[1]; all dose levels (discussion)
  overall response rate: 6%
[1]; overall, 4 out of 82 patients, 0.8-75 mg m-2
  partial response rate: 5%
[2]; 65.0 mg m-2, 12 patients
  Thrombophlebitis, worst grade 0, no. of patients: 7
  Thrombophlebitis, worst grade 1, no. of patients: 0
  Thrombophlebitis, worst grade 2, no. of patients: 4
  Thrombophlebitis, worst grade 3, no. of patients: 1
  Thrombophlebitis, worst grade 4, no. of patients: 1
[2]; [16]
  grade 4 anaemia, incidence: 8%
  grade 4 thrombocytopenia, incidence: 17%
[2]; [17]
  grade 3-4 anaemia, incidence: 7%
  grade 3-4 neutropenia, incidence: 7%
  grade 3-4 thrombocytopenia, incidence: 21%
[2]; 75 mg m-2, 20 patients
  patients with grade 4 thrombocytopenia (total): eight
[2]; 75.0 mg m-2, 20 patients
  Thrombophlebitis, worst grade 0, no. of patients: 12
  Thrombophlebitis, worst grade 1, no. of patients: 0
  Thrombophlebitis, worst grade 2, no. of patients: 3
  Thrombophlebitis, worst grade 3, no. of patients: 3
  Thrombophlebitis, worst grade 4, no. of patients: 2
[2]; [18]
  grade 3-4 anaemia, patients: none
  grade 3-4 neutropenia, incidence: 33%
  grade 3-4 thrombocytopenia, incidence: 83%
[2]; 31 patients treated at 7.5-50 mg m-2, generally grade 1-2
  thrombophlebitis, incidence: 26%
[2]; 32 evaluable patients treated at 65-75 mg m-2
  thrombophlebitis of grade 3-4, incidence: 22%
[2]; 32 patients at 65-75 mg m-2
  treatment discontinued because of toxicity: 53%
[2]; 62 evaluable patients, all dose levels
  significant reduction in LVEF, incidence: 15%
[2]; 65-75 mg m-2
  patients who died suddenly with pneumonia/pneumonitis thought drug-related: Three
[2]; 65-75 mg m-2 (discussion)
  median nadir times for neutropenia: 15 to 19 days
  nadirs for thrombocytopenia (median time): 16 to 24 days
[2]; 75-T, 6 patients
  Haemoglobin, worst WHO grade 1, no. of patients: 2
  Haemoglobin, worst WHO grade 2, no. of patients: 4
  Haemoglobin, worst WHO grade 3, no. of patients: 0
  Haemoglobin, worst WHO grade 4, no. of patients: 0
  Neutrophils, worst WHO grade 0, no. of patients: 1
  Neutrophils, worst WHO grade 1, no. of patients: 1
  Neutrophils, worst WHO grade 2, no. of patients: 2
  Neutrophils, worst WHO grade 3, no. of patients: 2
  Neutrophils, worst WHO grade 4, no. of patients: 0
  Platelets, worst WHO grade 0, no. of patients: 1
  Platelets, worst WHO grade 1, no. of patients: 0
  Platelets, worst WHO grade 2, no. of patients: 0
  Platelets, worst WHO grade 3, no. of patients: 2
  Platelets, worst WHO grade 4, no. of patients: 3
[2]; 75-T: 75 mg m-2, prior chemotherapy, 6 patients
  Haemoglobin, worst WHO grade 0, no. of patients: 0
[2]; 75-U, 14 patients
  Haemoglobin, worst WHO grade 1, no. of patients: 3
  Haemoglobin, worst WHO grade 2, no. of patients: 7
  Haemoglobin, worst WHO grade 3, no. of patients: 1
  Haemoglobin, worst WHO grade 4, no. of patients: 0
  Neutrophils, worst WHO grade 0, no. of patients: 10
  Neutrophils, worst WHO grade 1, no. of patients: 1
  Neutrophils, worst WHO grade 2, no. of patients: 2
  Neutrophils, worst WHO grade 3, no. of patients: 0
  Neutrophils, worst WHO grade 4, no. of patients: 1
  Platelets, worst WHO grade 0, no. of patients: 7
  Platelets, worst WHO grade 1, no. of patients: 1
  Platelets, worst WHO grade 2, no. of patients: 3
  Platelets, worst WHO grade 3, no. of patients: 0
  Platelets, worst WHO grade 4, no. of patients: 3
[2]; 75-U: 75 mg m-2, previously untreated, 14 patients
  Haemoglobin, worst WHO grade 0, no. of patients: 3
[2]; 82 patients, all dose levels
  possible renal toxicity (rise in serum creatinine), incidence: 4%
  possible treatment-related deaths: four
[2]; 82 patients, with prophylactic antiemetics
  grade 1-2 nausea, number of patients: 21
[2]; 82 patients, thirteen of them treated at 65-75 mg m-2
  moderate or severe emesis (grade 2-3), number of patients: fifteen
[2]; after 65 mg m-2, range 21-45 days
  time for platelet counts to recover to normal, median: 25 days
[2]; after 65 mg m-2, range 27-42 days
  time for granulocyte counts to recover to normal, median: 34.5 days
[2]; after 75 mg m-2, range 19-43
  time for granulocyte counts to recover to normal, median: 22.5 days
[2]; after 75 mg m-2, range 20-46
  time for platelet counts to recover to normal, median: 29.5 days
[2]; all dose levels
  time to nadir blood counts, median: 15 to 22 days
[2]; chemotherapy-naive patients, i.v. every 28 days
  maximum-tolerated dose: 75 mg m-2
[2]; dose 0.8 mg m-2, 4 patients (3 not evaluable)
  Significant reduction in LVEF, no. of patients: 0
[2]; dose 1.6 mg m-2, 3 patients (1 not evaluable)
  Significant reduction in LVEF, no. of patients: 1
[2]; dose 3.2 mg m-2, 7 patients (0 not evaluable)
  Significant reduction in LVEF, no. of patients: 2
[2]; dose 5.0 mg m-2, 5 patients (1 not evaluable)
  Significant reduction in LVEF, no. of patients: 1
[2]; dose 7.5 mg m-2, 5 patients (0 not evaluable)
  Significant reduction in LVEF, no. of patients: 0
[2]; dose 11.5 mg m-2, 7 patients (2 not evaluable)
  Significant reduction in LVEF, no. of patients: 0
[2]; dose 19 mg m-2, 8 patients (3 not evaluable)
  Significant reduction in LVEF, no. of patients: 0
[2]; dose 32 mg m-2, 5 patients (1 not evaluable)
  Significant reduction in LVEF, no. of patients: 1
[2]; dose 50 mg m-2, 6 patients (2 not evaluable)
  Significant reduction in LVEF, no. of patients: 1
[2]; dose 65 mg m-2, 12 patients (3 not evaluable)
  Significant reduction in LVEF, no. of patients: 0
[2]; dose 75 mg m-2, 20 patients (4 not evaluable)
  Significant reduction in LVEF, no. of patients: 3
[2]; dose levels 0.8-19 mg m-2, bolus injection
  thrombophlebitis of grades 1-3, incidence: 13%
[2]; i.v. every 28 days
  dose-limiting toxicity: myelosuppression
[2]; previously treated patients, i.v. every 28 days
  maximum-tolerated dose: 65 mg m-2
[2]; sixteen evaluable patients at 75 mg m-2
  significant reduction in LVEF, incidence: 19%
[2]; up to 50 mg m-2
  haematological toxicity (grade >3): no significant
[3]; 0.8 and 1.6 mg m-2 dose levels, assay lower limit of quantitation 50 ng ml-1
  plasma levels of TEMMC: not sufficiently sensitive to quantify plasma levels
[3]; in vivo
  dose linearity of pharmacokinetics: dose linear
[4]
  LD10: 24.9 mg m-2
[5]
  toxic low dose (TLD): 2.5 mg m-2
[6]
  cardiotoxicity: dose-related cardiotoxicity
[7]
  anti-tumour activity compared with MMC: superior activity
[8]
  anti-tumour activity: slight activity
[9]
  anti-tumour activity: inactive
[10]
  neutropenia compared with MMC: less neutropenia than MMC
[11]
  neutropenia and thrombocytopenia compared with MMC: less neutropenic and much less thrombocytopenic
[12]; unlike MMC
  toxicity in hypoxic versus aerobic conditions: not more toxic in hypoxic than aerobic conditions
[12]
  activity against MMC-resistant tumour cell lines: active
[13]
  disappearance in plasma: rapidly
[14]
  toxicity of 6-h infusion: local venous toxicity with thrombophlebitis and venospasm
[15]; preclinical testing of MMC analogues, ref Bregman et al, 1989
  preclinical toxicity: myelosuppression and proteinuria
[15]; preclinical, ref Doyle and Vyas, 1990
  myelosuppression compared with parent compound MMC: marginally less myelosuppressive than the parent compound
